Data from patent US20160081354A1, “METHOD FOR TREATMENT OF MICROORGANISMS DURING PROPAGATION, CONDITIONING AND FERMENTATION USING HOPS ACID EXTRACTS AND NISIN” (Solenis Technologies, L.P., priority 2014, published 2016).

What was measured:
[1] = test system: yeast (Saccharomyces cerevisiae) fermentations contaminated by lactic acid bacteria (L. plantarum); experiment: Corn mash fermentation lab test: ethanol and lactic acid at the end of fermentation; assay type: cell-based; settings: 64 hours, nisin alone 5 ppm, Virginiamycin 0.5 ppm
Description: Evaluations were conducted at the National Corn-to-Ethanol Research Center, utilizing hops acid extracts and nisin. The samples tested and their concentrations can be found in FIG. 1 and Tables 2 and 4. The tests were conducted to evaluate the effects of binary antimicrobials on ethanol production in corn mash produced under conditions that are similar to those used in the fuel ethanol industry. Two specific effects were investigated: (1) the ability of antimicrobials to affect ethanol yield and sugar conversion in fermentations that are contaminated by lactic acid bacteria, and (2) the ability of antimicrobials to control bacterial infections compared to control bacteria-free fermentations. Three 160-gram slurries of corn flour, water and enzyme (30% w/w dry solids) were made for each treatment and control (inoculated and uninoculated). The slurries were incubated for 90 minutes at 83° C., cooled to 40° C., and then inoculated with L. plantarum. Next, the slurries were dosed with antimicrobial. […] The mass of each flask was recorded after all additions were made, then sanitized fermentation traps were inserted into each flask and they were weighed again. […] Fermentation progress was monitored by weighing the fermentation flasks periodically during the 3-day incubation (at 0, 17.5, 22.5, 42.5, 48, and 64 hrs after inoculation with yeast). The concentrations of substrates (glucose, DP2, DP3, and DP4+, where “DPx” represent glucose oligomers with “x” subunits) and products (ethanol, glycerol, lactic acid, and acetic acid) were measured by HPLC at the end of fermentation. Samples were prepared for HPLC by centrifugation to remove large solids, followed by filtration through 0.45-μm syringe filters, and acidification to pH of approximately 2 by addition of sulfuric acid to a final concentration of 0.01 N. The final pH, concentrations of total dry solids and dissolved dry solids, and the density of the beer filtrate was measured were measured after incubation for 64 hours. […]

L. plantarum = experiment: Corn mash fermentation lab test: bacterial colony counts after antimicrobial addition; assay type: cell-based; settings: nisin alone 5 ppm, virginiamycin 0.5 ppm
Description: Evaluations were conducted at the National Corn-to-Ethanol Research Center, utilizing hops acid extracts and nisin. The samples tested and their concentrations can be found in FIG. 1 and Tables 2 and 4. The tests were conducted to evaluate the effects of binary antimicrobials on ethanol production in corn mash produced under conditions that are similar to those used in the fuel ethanol industry. Two specific effects were investigated: (1) the ability of antimicrobials to affect ethanol yield and sugar conversion in fermentations that are contaminated by lactic acid bacteria, and (2) the ability of antimicrobials to control bacterial infections compared to control bacteria-free fermentations. Three 160-gram slurries of corn flour, water and enzyme (30% w/w dry solids) were made for each treatment and control (inoculated and uninoculated). The slurries were incubated for 90 minutes at 83° C., cooled to 40° C., and then inoculated with L. plantarum. Next, the slurries were dosed with antimicrobial. The facility dosed hops acid extracts and nisin to 250-mL Erlenmeyer flasks and samples were collected at 15, 30 and 60 minutes post antimicrobial addition. After the 3 time-point samples were collected, the pH of the mash was adjusted to <5.2 by addition of 300 μl of 5-N sulfuric acid. All enzymes, nutrients, and other amendments added to the fermentation flasks were freshly prepared before use. Urea was added as a sterile 0.2-g/ml solution to a final concentration of 500 ppm (w/w) based on the nitrogen content of the urea (w/w, based on the total mass of mash). The glucoamylase enzyme (Spirizyme Excel, Novozymes) was prepared as a 0.25-g/ml solution and added at a dose of 0.066% (w/w, based on the wet weight of corn). Sterile water was added to equalize the total solids content of each treatment. […] The mass of each flask was recorded after all additions were made, then sanitized fermentation traps were inserted into each flask and they were weighed again. […] Fermentation progress was monitored by weighing the fermentation flasks periodically during the 3-day incubation (at 0, 17.5, 22.5, 42.5, 48, and 64 hrs after inoculation with yeast). The concentrations of substrates (glucose, DP2, DP3, and DP4+, where “DPx” represent glucose oligomers with “x” subunits) and products (ethanol, glycerol, lactic acid, and acetic acid) were measured by HPLC at the end of fermentation. Samples were prepared for HPLC by centrifugation to remove large solids, followed by filtration through 0.45-μm syringe filters, and acidification to pH of approximately 2 by addition of sulfuric acid to a final concentration of 0.01 N. The final pH, concentrations of total dry solids and dissolved dry solids, and the density of the beer filtrate was measured were measured after incubation for 64 hours. […]

Weisella confusa = settings: cited from earlier work
yeast = settings: fermentation mixture; cited from earlier work

Virginiamycin
Average Ethanol ([1]; end of fermentation): 11.86 %, w/v | Average Final Lactic Acid Concentration ([1]; end of fermentation): 0.38 %, w/w | Average Final Ethanol Yield ([1]; grams ethanol per grams of dry corn, average of three flasks): 0.312 g/g | Colony counts after antimicrobial addition (L. plantarum; time point 0.25 (15 minutes post addition)): 1.00E+06 | Colony counts after antimicrobial addition (L. plantarum; time point 0.5 (30 minutes post addition)): 1.35E+06 | Colony counts after antimicrobial addition (L. plantarum; time point 1 (60 minutes post addition)): 1.95E+06 | Colony counts at the end of fermentation (L. plantarum; time point 64 (64 hours)): 6.67E+04 | concentration required to inhibit growth of Weisella confusa (Weisella confusa): over 25 mg/L | concentration that will suppress production of ethanol (yeast): over 2 mg/L
